Test results from publication PMC10289334 (PLOS ONE, 2023).

What was measured:
[1] = target: T1, FtFBPaseII (Francisella tularensis, UniProt Q5NEJ8); conditions: low (suboptimal) Mn2+; active site of chain C
T1 construct: gene gplX

[2] = target: T2, MtFBPaseII (Mycobacterium tuberculosis, UniProt P9WN21); type: binding
T2 construct: gene glpX; wild type; tetramer

[3] = target: Francisella tularensis class II fructose-1,6-bisphosphatase (FtFBPaseII), wild type (Francisella tularensis); experiment: crystal structure
[4] = target: the molecule itself; experiment: crystal structure

In the case of O=P(O)(O)OC[C@H]1OC(O)(COP(=O)(O)O)[C@@H](O)[C@@H]1O (stereo partly shown) [F1,6BP], the “X-ray crystal structure (Form E, 2.2 A)” value [1] is reported as “could be interpreted as what appeared to be a substrate molecule bound” and the “X-ray crystal structure (Form C, 3.7 A)” value [2] is reported as “The final refined structure confirmed the presence of the F1,6BP substrate in both chains”.

With “Francisella tularensis class II fructose-1,6-bisphosphatase (FtFBPaseII), wild type (enzyme)” the stoichiometry N [3] was 4.

B1: Mycobacterium tuberculosis class II fructose-1,6-bisphosphatase (MtFBPaseII), wild type (enzyme)
chain: MELVRVTEAGAMAAGRWVGRGDKEGGDGAAVDAMRELVNSVSMRGVVVIGEGEKDHAPMLYNGEEVGNGDGPECDFAVDPIDGTTLMSKGMTNAISVLAVADRGTMFDPSAVFYMNKIAVGPDAAHVLDITAPISENIRAVAKVKDLSVRDMTVCILDRPRHAQLIHDVRATGARIRLITDGDVAGAISACRPHSGTDLLAGIGGTPEGIIAAAAIRCMGGAIQAQLAPRDDAERRKALEAGYDLNQVLTTEDLVSGENVFFCATGVTDGDLLKGVRYYPGGCTTHSIVMRSKSGTVRMIEAYHRLSKLNEYSAIDFTGDSSAVYPLP
notes: also called Mt(Mg^2+)FBPaseII
B1 was tested, and the “stoichiometry N” value [4] was 4.
